From US10526370B2, “Pentapeptide associated with integrin receptor alpha vbeta3” (priority 2015, dated 2020)
Entries after “also recorded” stand apart in the source; their conditions may differ. Read-outs that look alike come from different tables or passages of the source. Where a SMILES comes first, the peptide text is derived from it. [ ]: non-standard residue; d: D form.

Tests used:
[1] = test system: L02 cells; assay: In vitro cellular uptake assay (laser confocal microscopy); type: cell-based; conditions: L02, 500 μmol/L, 2-hour incubation at 37° C., FIG. 4
Experimental: (§1) The cultured human glioma cells U87MG, human breast cancer cells MDA-MB-231, human breast cancer cells MCF-7 and normal liver cells L02 were transferred to a confocal dish respectively, and incubated overnight. Then, the rhodamine B-labeled pentapeptide was added at the same concentration (500 μmol/L). The cyclic RGD labeled with the rhodamine B is added and used as a positive control. After 2-hour incubation at 37° C., the cells were stained with 12 μg/mL of the nuclear staining reagent Hochest 33342. Finally, the intracellular uptake of the probe was observed under a laser confocal microscope.

[2] = test system: U87MG cells; assay: In vitro cell affinity test (flow cytometry); type: cell-based, human; conditions: rhodamine-labeled peptides, FIG. 1
Experimental: The human malignant glioma cells (U87MG) and the human breast cancer cells (MDA-MB-231) were cultured in a 6-well plate for 12 hours. Then, 100 μL of a polypeptide fluorescent probe labeled with rhodamine B (final concentration 250 μM) was added and co-incubated for 2 hours with gently shaking on a shaker at 37° C. Next, the cells were digested with 0.05% trypsin and washed off from the 6-wells plate. The cells were re-suspended in 1 mL PBS buffer (pH 7.2), and centrifuged (3500 r, 5 min). The supernatant was aspirated and discarded. The pellet was washed twice with a PBS buffer (pH7.2). After washing, the cells were re-suspended in a PBS buffer (pH 7.2). The mean fluorescence intensity (MFI) of the cells was quantified by using a flow cytometer. The higher the fluorescence intensity is, the greater the affinity for the cells will be. When the probe has a high affinity for the receptor on the cells, the cells have a high value of MFI measured by the flow cytometer. […] The dye used as a blank has a MFI of 25.

[3] = test system: U87MG cells; assay: In vitro cellular uptake assay (laser confocal microscopy); type: cell-based, human; conditions: 500 μmol/L, 2-hour incubation at 37° C., FIG. 3
Experimental: as §1

[4] = test system: MDA-MB-231 cells; assay: as above; type: cell-based, human; conditions: MDA-MB-231, 500 μmol/L, 2-hour incubation at 37° C., FIG. 3
Experimental: as §1

[5] = test system: MCF-7 cells; assay: as above; type: cell-based, human; conditions: MCF-7, 500 μmol/L, 2-hour incubation at 37° C., FIG. 4
Experimental: as §1

[6] = In vitro cellular cytotoxicity assay; type: cell-based; conditions: human
Experimental: When the U87MG cells, MCF-7 cells and normal liver cells L02 were grown to 90% confluent or higher, the cells were digested with 0.25% trypsin and then suspended in a complete growth medium to obtain a single cell suspension. The cells were plated at a density of 3000 cells/well in a 96-well plate, and cultured at 37° C. in an incubator containing 5% CO2. After 24-hour incubation, the medium was changed to a low-serum culture medium supplemented with 1% FBS. Then, the pentapeptide was added at different concentration gradients, to achieve a final concentration of 2.5, 5, 10, 20, 40, 80, 100 and 200 μM.

CSCC[C@H](NC(=O)[C@H](CC(N)=O)NC(=O)[C@@H](CCCNC(=N)N)NC(=O)[C@H](Cc1c[nH]c2ccccc12)NC(=O)[C@@H](N)CCCNC(=N)N)C(N)=O [pentapeptide, Arg-Trp-Arg-Asn-Met] (H-RW[dR]NM-NH2; N-terminus and C-terminus assumed)
intracellular uptake of the probe (fluorescence intensity) [1]: poor affinity and low | affinity for U87 cells (comparison in words) [2]: greatest affinity | intracellular uptake of the probe (fluorescence intensity) [3]: strong ability to uptake; also recorded: strong fluorescence intensity | intracellular uptake of the probe (fluorescence intensity) [4]: strong ability to uptake; also recorded: strong fluorescence intensity | intracellular uptake of the probe (fluorescence intensity) [5]: poor affinity and low | viability ([6]; MCF-7 cells, MCF-7, pentapeptide 2.5-200 μM, FIG. 6, read-out: cell survival rate): ≥ 80% | viability ([6]; U87MG cells, pentapeptide 2.5-200 μM, FIG. 6, read-out: cell survival rate): ≥ 80% | viability ([6]; normal liver cells L02, L02, pentapeptide 2.5-200 μM, FIG. 6, read-out: cell survival rate): ≥ 80%
